# Laboratory results published in US9624175B2, “Fused-bicyclic aryl quinolinone derivatives as mutant-isocitrate dehydrogenase inhibitors” (Forma Therapeutics, Inc., priority 2015, dated 2017).
# Target: IDH1-R132H recombinant protein (Homo sapiens (Human), UniProt O75874, R132H)
# Test: IDH1-R132H enzymatic assay (NADPH consumption, diaphorase/resazurin readout)
# Format: biochemical
# Details: inhibition of NADPH consumption, 30 nM IDH1-R132H; read-out: Enzyme IDH1 R132H IC50
# Protocol: Assays were performed in a 384-well black plate. An aliquot of 250 nL of compound was incubated with 10 μL of 30 nM IDH1-R132H or 10 nM IDH1-R132C recombinant protein in assay buffer (50 mM Tris pH=7.5, 150 mM NaCl, 5 mM MgCl2, 0.1% (w/v) Bovine Serum Albumin, and 0.01% Triton X-100) in each well at 25° C. for 15 minutes. After the plate was centrifuged briefly, an aliquot of 10 μL of 2 mM α-ketoglutarate and 20 μM NADPH solution prepared in assay buffer was then added to each well and the reaction was maintained at 25° C. for 45 minutes. An aliquot of 10 μL of diaphorase solution (0.15 U/mL diaphorase and 30 μM Resazurin in assay buffer) was added to each well. The plate was maintained at 25° C. for 15 minutes and then read on a plate reader with excitation and emission wavelengths at 535 nm and 590 nm, respectively. The IC50 of a given compound was calculated by fitting the dose response curve of inhibition of NADPH consumption at a given concentration with the four parameter logistic equation.
# Chain of IDH1-R132H recombinant protein (O75874 whole entry R132H): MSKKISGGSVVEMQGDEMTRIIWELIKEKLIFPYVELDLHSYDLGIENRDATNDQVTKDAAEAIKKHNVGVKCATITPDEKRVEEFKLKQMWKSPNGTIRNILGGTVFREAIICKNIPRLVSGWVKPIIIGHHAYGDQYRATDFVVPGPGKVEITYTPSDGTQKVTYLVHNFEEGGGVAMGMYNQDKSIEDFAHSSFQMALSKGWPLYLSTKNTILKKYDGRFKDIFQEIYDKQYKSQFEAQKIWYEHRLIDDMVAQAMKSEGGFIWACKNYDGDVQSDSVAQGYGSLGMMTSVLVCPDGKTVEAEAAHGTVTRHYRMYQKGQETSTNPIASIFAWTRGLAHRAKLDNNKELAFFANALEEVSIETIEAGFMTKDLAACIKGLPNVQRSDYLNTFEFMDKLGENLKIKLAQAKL
row,SMILES,IC50
1,"N#Cc1ccc(NCc2cc3cc(Cl)ccc3[nH]c2=O)c2ccccc12 [Compound I-7, 4-{[(6-chloro-2-oxo-1,2-dihydroquinolin-3-yl)methyl]amino}naphthalene-1-carbonitrile]",1 to 10 µM
2,"O=c1[nH]c2ccc(Cl)cc2cc1CNc1cccc2c1OCCC2 [Compound I-16, 6-chloro-3-{[(3,4-dihydro-2H-1-benzopyran-8-yl)amino]methyl}-1,2-dihydroquinolin-2-one]",> 10 µM
3,"COc1cc2c(cc1NCc1cc3cc(Cl)ccc3[nH]c1=O)NC(=O)CC2 [Compound I-17, 6-chloro-3-{[(6-methoxy-2-oxo-1,2,3,4-tetrahydroquinolin-7-yl)amino]methyl}-1,2-dihydroquinolin-2-one]",> 10 µM
4,"O=C1CCc2ccc(NCc3cc4cc(Cl)ccc4[nH]c3=O)cc2N1 [Compound I-18, 6-chloro-3-{[(2-oxo-1,2,3,4-tetrahydroquinolin-7-yl)amino]methyl}-1,2-dihydroquinolin-2-one]",> 10 µM
5,"Cc1n[nH]c2cc(NCc3cc4cc(Cl)ccc4[nH]c3=O)ccc12 [Compound I-19, 6-chloro-3-{[(3-methyl-1H-indazol-6-yl)amino]methyl}-1,2-dihydroquinolin-2-one]",> 10 µM
6,"COc1ccc2[nH]c(=O)c(CNc3ccc4sc(C)nc4c3)cc2c1 [Compound I-21, 6-methoxy-3-{[(2-methyl-1,3-benzothiazol-5-yl)amino]methyl}-1,2-dihydroquinolin-2-one]",> 10 µM
7,"O=C1CCCc2c(NCc3cc4cc(Cl)ccc4[nH]c3=O)cccc21 [Compound I-22, 6-chloro-3-{[(5-oxo-5,6,7,8-tetrahydronaphthalen-1-yl)amino]methyl}-1,2-dihydroquinolin-2-one]",> 10 µM
8,"O=c1[nH]c2ccc(Cl)cc2cc1CNc1ccc2nncn2n1 [Compound I-23, 6-chloro-3-[({[1,2,4]triazolo[4,3-b]pyridazin-6-yl}amino)methyl]-1,2-dihydroquinolin-2-one]",> 10 µM
9,"O=c1[nH]c2ccc(Cl)cc2cc1CNc1ccc2[nH]cnc2c1 [Compound I-24, 3-{[(1H-1,3-benzodiazol-5-yl)amino]methyl}-6-chloro-1,2-dihydroquinolin-2-one]",> 10 µM
10,"O=c1[nH]c2ccc(Cl)cc2cc1CNc1ccc2cn[nH]c2c1 [Compound I-25, 6-chloro-3-{[(1H-indazol-6-yl)amino]methyl}-1,2-dihydroquinolin-2-one]",> 10 µM
11,"O=c1[nH]c2ccc(Cl)cc2cc1CNc1ccc2ncsc2c1 [Compound I-26, 3-{[(1,3-benzothiazol-6-yl)amino]methyl}-6-chloro-1,2-dihydroquinolin-2-one]",> 10 µM
12,"O=c1[nH]c2ccc(Cl)cc2cc1CNc1ccc2ncccc2c1 [Compound I-27, 6-chloro-3-{[(quinolin-6-yl)amino]methyl}-1,2-dihydroquinolin-2-one]",> 10 µM
13,"O=c1[nH]c2ccc(Cl)cc2cc1CNc1ccc2[nH]c(C(F)(F)F)nc2c1 [Compound I-28, 6-chloro-3-({[2-(trifluoromethyl)-1H-1,3-benzodiazol-5-yl]amino}methyl)-1,2-dihydroquinolin-2-one]",> 10 µM
14,"O=c1[nH]c2ccc(Cl)cc2cc1CNc1ccc2scnc2c1 [Compound I-29, 3-{[(1,3-benzothiazol-5-yl)amino]methyl}-6-chloro-1,2-dihydroquinolin-2-one]",> 10 µM
15,"COc1ccc2[nH]c(=O)c(CNc3ccc4c(c3)OCCO4)cc2c1 [Compound I-30, 3-{[(2,3-dihydro-1,4-benzodioxin-6-yl)amino]methyl}-6-methoxy-1,2-dihydroquinolin-2-one]",> 10 µM
16,"Cc1cc2cc(CNc3ccc4cn[nH]c4c3)c(=O)[nH]c2cc1C [Compound I-31, 3-{[(1H-indazol-6-yl)amino]methyl}-6,7-dimethyl-1,2-dihydroquinolin-2-one]",> 10 µM
17,"Cc1ccc2cc(NCc3cc4cc(Cl)ccc4[nH]c3=O)ccc2n1 [Compound I-32, 6-chloro-3-{[(2-methylquinolin-6-yl)amino]methyl}-1,2-dihydroquinolin-2-one]",> 10 µM
18,"O=c1[nH]c2ccc(Cl)cc2cc1CNc1ccc2c(c1)OCCO2 [Compound I-33, 6-chloro-3-{[(2,3-dihydro-1,4-benzodioxin-6-yl)amino]methyl}-1,2-dihydroquinolin-2-one]",> 10 µM
19,"COc1ccc2[nH]c(=O)c(CNc3ccc4cn[nH]c4c3)cc2c1 [Compound I-34, 3-{[(1H-indazol-6-yl)amino]methyl}-6-methoxy-1,2-dihydroquinolin-2-one]",> 10 µM
20,"COc1ccc2[nH]c(=O)c(CNc3ccc4nc(C)ccc4c3)cc2c1 [Compound I-35, 6-methoxy-3-{[(2-methylquinolin-6-yl)amino]methyl}-1,2-dihydroquinolin-2-one]",> 10 µM
21,"COc1ccc2[nH]c(=O)c(CNc3ccc4ncsc4c3)cc2c1 [Compound I-36, 3-{[(1,3-benzothiazol-6-yl)amino]methyl}-6-methoxy-1,2-dihydroquinolin-2-one]",> 10 µM
22,"Cc1ccc2cc(NCc3cc4cc(C)c(C)cc4[nH]c3=O)ccc2n1 [Compound I-37, 6,7-dimethyl-3-{[(2-methylquinolin-6-yl)amino]methyl}-1,2-dihydroquinolin-2-one]",> 10 µM
23,"O=c1[nH]c2ccc(Cl)cc2cc1CNc1ccc2[nH]ncc2c1 [Compound I-38, 6-chloro-3-{[(1H-indazol-5-yl)amino]methyl}-1,2-dihydroquinolin-2-one]",> 10 µM
24,"COc1ccc2[nH]c(=O)c(CNc3ccc4ncccc4c3)cc2c1 [Compound I-39, 6-methoxy-3-{[(quinolin-6-yl)amino]methyl}-1,2-dihydroquinolin-2-one]",> 10 µM
25,"Cc1cc2cc(CNc3ccc4ncsc4c3)c(=O)[nH]c2cc1C [Compound I-40, 3-{[(1,3-benzothiazol-6-yl)amino]methyl}-6,7-dimethyl-1,2-dihydroquinolin-2-one]",> 10 µM

# Next, values leading:
row,IC50,SMILES
1,0.1 to 1 µM,"Cn1c(=O)oc2ccc(NCc3cc4cc(Cl)ccc4[nH]c3=O)cc21 [Compound I-2, 6-chloro-3-{[(3-methyl-2-oxo-2,3-dihydro-1,3-benzoxazol-5-yl)amino]methyl}-1,2-dihydroquinolin-2-one]"
2,0.1 to 1 µM,"O=c1[nH]c2cc(NCc3cc4cc(Cl)ccc4[nH]c3=O)ccc2o1 [Compound I-3, 6-chloro-3-{[(2-oxo-2,3-dihydro-1,3-benzoxazol-5-yl)amino]methyl}-1,2-dihydroquinolin-2-one]"
3,0.1 to 1 µM,"CN1C(=O)CCc2cc(NCc3cc4cc(Cl)ccc4[nH]c3=O)ccc21 [Compound I-5, 6-chloro-3-{[(1-methyl-2-oxo-1,2,3,4-tetrahydroquinolin-6-yl)amino]methyl}-1,2-dihydroquinolin-2-one]"
4,1 to 10 µM,"O=c1[nH]c2ccc(Cl)cc2cc1CNc1cc2ccccc2cn1 [Compound I-6, 6-chloro-3-{[(isoquinolin-3-yl)amino]methyl}-1,2-dihydroquinolin-2-one]"
5,1 to 10 µM,"O=c1[nH]c2ccc(Cl)cc2cc1CNc1cccc2cccnc12 [Compound I-8, 6-chloro-3-{[(quinolin-8-yl)amino]methyl}-1,2-dihydroquinolin-2-one]"
6,1 to 10 µM,"O=c1[nH]c2ccc(Cl)cc2cc1CNc1cccc2c1OCC2 [Compound I-9, 6-chloro-3-{[(2,3-dihydro-1-benzofuran-7-yl)amino]methyl}-1,2-dihydroquinolin-2-one]"
7,1 to 10 µM,"CN1C(=O)COc2cc(NCc3cc4cc(Cl)ccc4[nH]c3=O)ccc21 [Compound I-10, 7-{[(6-chloro-2-oxo-1,2-dihydroquinolin-3-yl)methyl]amino}-4-methyl-3,4-dihydro-2H-1,4-benzoxazin-3-one]"
8,1 to 10 µM,"O=C1COc2cc(NCc3cc4cc(Cl)ccc4[nH]c3=O)ccc2N1 [Compound I-11, 7-{[(6-chloro-2-oxo-1,2-dihydroquinolin-3-yl)methyl]amino}-3,4-dihydro-2H-1,4-benzoxazin-3-one]"
9,> 10 µM,"COc1cc2cc(CNc3ccc4[nH]c(-c5ccc6[nH]cnc6c5)nc4c3)c(=O)[nH]c2cc1OC [Compound I-12, 3-({[2-(1H-1,3-benzodiazol-5-yl)-1H-1,3-benzodiazol-5-yl]amino}methyl)-6,7-dimethoxy-1,2-dihydroquinolin-2-one]"
10,> 10 µM,"O=C1Cc2ccc(NCc3cc4cc(Cl)ccc4[nH]c3=O)cc2N1 [Compound I-13, 6-chloro-3-{[(2-oxo-2,3-dihydro-1H-indol-6-yl)amino]methyl}-1,2-dihydroquinolin-2-one]"
11,> 10 µM,"Cn1c(=O)oc2cc(NCc3cc4cc(Cl)ccc4[nH]c3=O)ccc21 [Compound I-14, 6-chloro-3-{[(3-methyl-2-oxo-2,3-dihydro-1,3-benzoxazol-6-yl)amino]methyl}-1,2-dihydroquinolin-2-one]"
12,> 10 µM,"O=c1[nH]c2ccc(Cl)cc2cc1CNc1cccc2ccncc12 [Compound I-15, 6-chloro-3-{[(isoquinolin-8-yl)amino]methyl}-1,2-dihydroquinolin-2-one]"
13,1 to 10 µM,"O=C1CCc2cc(NCc3cc4cc(Cl)ccc4[nH]c3=O)ccc2N1 [Compound I-20, 6-chloro-3-{[(2-oxo-1,2,3,4-tetrahydroquinolin-6-yl)amino]methyl}-1,2-dihydroquinolin-2-one]"
14,1 to 10 µM,"CC(C)(C)c1ccc2[nH]c(=O)c(CNc3ccc4[nH]ncc4c3)cc2c1 [Compound I-41, 6-tert-butyl-3-{[(1H-indazol-5-yl)amino]methyl}-1,2-dihydroquinolin-2-one]"
